Source: ChEMBL document CHEMBL1139589, “In vitro antiproliferative activity against human colon cancer cell lines of representative 4-thiazolidinones. Part I” (Bioorg Med Chem Lett, 2005)

Tests used:
[1] = molecular target: T1, Prostaglandin G/H synthase 2 (Homo sapiens) (UniProt P35354); settings: at 10 µM
T1 sequence (whole entry): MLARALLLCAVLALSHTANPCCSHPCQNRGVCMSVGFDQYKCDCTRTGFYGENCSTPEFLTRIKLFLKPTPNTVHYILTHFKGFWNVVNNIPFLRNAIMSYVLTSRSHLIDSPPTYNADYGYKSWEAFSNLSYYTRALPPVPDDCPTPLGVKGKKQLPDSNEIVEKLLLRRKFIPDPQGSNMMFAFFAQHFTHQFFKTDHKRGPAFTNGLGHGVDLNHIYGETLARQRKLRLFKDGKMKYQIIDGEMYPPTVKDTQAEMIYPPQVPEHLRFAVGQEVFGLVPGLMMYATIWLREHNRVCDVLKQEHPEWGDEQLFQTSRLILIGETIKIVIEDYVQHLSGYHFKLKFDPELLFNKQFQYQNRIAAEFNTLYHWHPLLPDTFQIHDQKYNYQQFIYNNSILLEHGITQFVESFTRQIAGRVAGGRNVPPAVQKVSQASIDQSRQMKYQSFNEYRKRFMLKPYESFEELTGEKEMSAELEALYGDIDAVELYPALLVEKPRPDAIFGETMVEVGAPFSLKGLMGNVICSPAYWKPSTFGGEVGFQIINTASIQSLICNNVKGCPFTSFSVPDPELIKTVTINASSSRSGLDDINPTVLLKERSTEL
Description: Percentage inhibition activity at a concentration of 10 uM against cyclooxygenase 2 with the compound dissolved in DMSO

[2] = molecular target: T2, Prostaglandin G/H synthase 1 (Homo sapiens, UniProt P23219); settings: at 10 µM
Description: Percentage inhibition activity at a concentration of 10 uM against cyclooxygenase 1 with the compound dissolved in DMSO

[3] = system: HT-29; assay: Inhibition of growth of HT-29 cell line after 24+72 hours of exposure time with the compound dissolved in DMSO; format: functional, cell-based; settings: Homo sapiens, HT-29, 72 h
[4] = system: HT-29; assay: Inhibition of growth of HT-29 cell line after 96 hours of exposure time with the compound dissolved in DMSO; format: functional, cell-based; settings: Homo sapiens, HT-29, 96 h
[5] = Inhibition of growth of H630 cell line after 96 hours of exposure time with the compound dissolved in DMSO; format: functional, cell-based; settings: Homo sapiens, NCI-H630, 96 h
[6] = system: DLD-1; assay: Inhibition of growth of DLD-1 cell line after 72+72 hours of exposure time with the compound dissolved in DMSO; format: functional, cell-based; settings: Homo sapiens, DLD-1, 72 h
[7] = system: DLD-1; assay: Inhibition of growth of DLD-1 cell line after 72 hours of exposure time with the compound dissolved in DMSO; format: functional, cell-based; settings: Homo sapiens, DLD-1, 72 h
[8] = system: HCT-116; assay: Inhibition of growth of HCT116 cell line after 72 hours of exposure time with the compound dissolved in DMSO; format: functional, cell-based; settings: Homo sapiens, HCT-116, 72 h
[9] = system: HT-29; assay: Inhibition of growth of HT-29 cell line after 72 hours of exposure time with the compound dissolved in DMSO; format: functional, cell-based; settings: Homo sapiens, HT-29, 72 h
[10] = Inhibition of growth of HCT116 cell line after 72+72 hours of exposure time with the compound dissolved in DMSO; format: functional, cell-based; settings: Homo sapiens, HCT-116, 72 h
[11] = Inhibition of growth of HCT116 cell line after 96 hours of exposure time with the compound dissolved in DMSO; format: functional, cell-based; settings: Homo sapiens, HCT-116, 96 h
[12] = system: HT-29; assay: Inhibition of growth of HT-29 cell line after 72+72 hours of exposure time with the compound dissolved in DMSO; format: functional, cell-based; settings: Homo sapiens, HT-29, 72 h
[13] = system: HCT-8; assay: Inhibition of growth of HCT-8 cell line after 72 hours of exposure time with the compound dissolved in DMSO; format: functional, cell-based; settings: Homo sapiens, HCT-8, 72 h
[14] = system: HCT-8; assay: Inhibition of growth of HCT-8 cell line after 96 hours of exposure time with the compound dissolved in DMSO; format: functional, cell-based; settings: Homo sapiens, HCT-8, 96 h
[15] = system: DLD-1; assay: Inhibition of growth of DLD-1 cell line after 96 hours of exposure time with the compound dissolved in DMSO; format: functional, cell-based; settings: Homo sapiens, DLD-1, 96 h
[16] = system: DLD-1; assay: Inhibition of growth of DLD-1 cell line after 24+72 hours of exposure time with the compound dissolved in DMSO; format: functional, cell-based; settings: Homo sapiens, DLD-1, 72 h
[17] = Inhibition of growth of H630 cell line after 72 hours of exposure time with the compound dissolved in DMSO; format: functional, cell-based; settings: Homo sapiens, NCI-H630, 72 h
[18] = Inhibition of growth of HCT116 cell line after 24+72 hours of exposure time with the compound dissolved in DMSO; format: functional, cell-based; settings: Homo sapiens, HCT-116, 72 h
[19] = molecular target: T2, Prostaglandin G/H synthase 1; assay: In vitro inhibition activity against cyclooxygenase 1 with the compound dissolved in DMSO
[20] = molecular target: T3, Prostaglandin G/H synthase 2 (Homo sapiens, UniProt P35354); assay: In vitro inhibition activity against cyclooxygenase 2 with the compound dissolved in DMSO
T3 sequence (P35354 whole entry): T1 sequence (whole entry)

T2 sequence (P23219 whole entry): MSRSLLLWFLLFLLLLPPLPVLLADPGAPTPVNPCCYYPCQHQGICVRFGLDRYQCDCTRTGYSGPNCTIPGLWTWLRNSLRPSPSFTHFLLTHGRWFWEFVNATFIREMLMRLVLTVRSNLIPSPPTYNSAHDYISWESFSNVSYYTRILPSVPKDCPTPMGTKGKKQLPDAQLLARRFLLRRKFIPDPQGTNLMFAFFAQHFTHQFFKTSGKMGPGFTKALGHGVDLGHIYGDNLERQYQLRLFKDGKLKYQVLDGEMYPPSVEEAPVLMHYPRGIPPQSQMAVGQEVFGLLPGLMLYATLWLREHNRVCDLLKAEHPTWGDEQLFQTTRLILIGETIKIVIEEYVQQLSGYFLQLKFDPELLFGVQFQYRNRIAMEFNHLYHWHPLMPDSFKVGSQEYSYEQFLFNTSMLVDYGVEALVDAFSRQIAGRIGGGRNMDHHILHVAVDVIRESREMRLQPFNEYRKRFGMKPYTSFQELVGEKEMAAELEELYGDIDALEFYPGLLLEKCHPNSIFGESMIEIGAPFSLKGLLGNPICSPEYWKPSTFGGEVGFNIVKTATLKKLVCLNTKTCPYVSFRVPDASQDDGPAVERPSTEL

| inhibition [1] [%] | inhibition [2] [%] | IC50 [3] [µM] | IC50 [4] [µM] | IC50 [6] [µM] | IC50 [7] [µM] | IC50 [8] [µM] | IC50 [9] [µM] | IC50 [12] [µM] | IC50 [13] [µM] | IC50 [14] [µM] | IC50 [15] [µM] | IC50 [16] [µM] | IC50 [19] [µM] | IC50 [20] [µM] | SMILES | IC50 [5] [µM] | IC50 [10] [µM] | IC50 [11] [µM] | IC50 [17] [µM] | IC50 [18] [µM] |
| --- | --- | --- | --- | --- | --- | --- | --- | --- | --- | --- | --- | --- | --- | --- | --- | --- | --- | --- | --- | --- |
| 0 | 8 |  |  |  |  |  |  |  |  |  |  |  |  |  | CCCN1C(=O)CS/C1=N/c1ccccc1 |  |  |  |  |  |
| 0 | 0 | 71.7 | 59.7 | 31.4 | 37.4 | 48.8 | 38.8 | 31.4 | 100 | 82.2 | 17.8 | 40.1 |  |  | O=C1NC(=O)/C(=C/c2cccc(C(F)(F)F)c2)S1 | 83.2 | 36.8 | 45.5 | 97.6 | 91.7 |
| 24 | 0 | 92.8 | 23.4 | > 100 | > 100 | > 100 | 64.1 | 36.2 | > 100 | > 100 | 13.1 | > 100 |  |  | CCCN1C(=O)/C(=C/c2cccc(OC)c2)S/C1=N/c1ccccc1 | > 100 | > 100 | 34.2 | > 100 | > 100 |
|  |  |  |  |  |  |  |  |  |  |  |  |  | 53.7 | 1.12 | COc1ccc(C2SCC(=O)N2CCN2C(=O)CSC2c2ccc(OC)cc2)cc1 (stereo not given) |  |  |  |  |  |
